How the values were obtained:
[1] = tested on: inflammatory cytokine gene expression (MIP2, TNFα, IL-6) in IEC-6 rat intestinal epithelial cells; assay: Inflammatory cytokine gene expression (qPCR) in IEC-6 cells with and without LPS challenge (Example 6); type: cell-based; details: LPS alone, 1 hr at 37° C.
[2] = tested on: avian pathogenic Escherichia coli (APEC); assay: APEC levels in GI tract of commercial broilers at 12-15 days, with and without in ovo gentamycin (Example 2); type: in vivo; details: GI tract of broilers at 12-15 days of age
[3] = tested on: avian pathogenic Escherichia coli (APEC); type: in vivo; details: 3 days of age; ½ dose in ovo gentamycin; all birds treated with the product

| Substance | increase in gene expression of all three inflammatory cytokines (MIP2, TNFα, IL-6) relative to unstimulated control cells [1] [fold] | birds with detectable levels of APEC [2] | average APEC level ([2]; ten birds per treatment) | APEC levels, gentamycin-treated vs untreated birds [3] |
| --- | --- | --- | --- | --- |
| Lipopolysaccharide | > 50 |  |  |  |
| gentamycin |  | 2 out of 10 birds | 6.6×10^1 CFU/g | not statistically different |
